Laboratory results published in patent publication US20060223780A1, “Method for administration of capecitabine” (priority 2005, published 2006).

How the values were obtained:
tumor [1] = test: Experiment 2: schedules at the same daily dosages (survival, tumor volume, body weight); assay type: in vivo
Source text: Following is the design of the final experiment with the schedules and dosages used (Table 2): […]

[2] = approved dose and schedule of capecitabine; cited from earlier work
MX-1 = settings: cited from earlier work
tumor [3] = test: Experiment 2 data: Gompertzian growth / drug effect (DE) population modelling with NONMEM; assay type: in vivo; settings: for time of maximal DE after start of treatment, average / time of maximal DE after start of treatment, range: individual data; for time of maximal drug effect (DE) after start of treatment / Day on which the drug effect (DE) is maximal, F'(x)≈0: pooled data; for Day on which the drug effect (DE) is maximal, F'(x)≈0: start of treatment day 17
Experimental: Therefore, the data were then analyzed for the approved (14/7) chemotherapy drug schedule by measuring at each time point after the initiation of therapy the ratio of the (data-derived) expected Gompertzian growth rate in the unperturbed (control) state compared with that observed in the treated state. Curve-fitting was performed by non-linear mixed-effect population modeling using NONMEM software.
The Analysis performed used a non-linear mixed effects population modelling approach with the NONMEM software:
A) with the Gompertzian growth model (TV: tumor volume): • dTV/dt=α*TV−((α/log(TVinf))*TV*log(TV))
B) and the drug effect (DE) model • dTV/dt=α*TV−((α/log(TVinf)*TV*log(TV))*(1−DE)

MAXF 401 = settings: cited from earlier work
[4] = Schedule C (2 d on, 5 d off), even at the lowest daily dosages
[5] = non toxic doses, compared between schedules, p.o.

For `CCCCCOC(=O)Nc1nc(=O)n([C@@H]2O[C@H](C)[C@@H](O)[C@H]2O)cc1F` [capecitabine, 5′-deoxy-5-fluoro-N-[(pentyloxy)-carbonyl]-cytidine], the toxicity (tumor [1]; higher 2 dose levels, 14 days of treatment compared to shorter treatment durations (dose comparison, Tables 4-1, 4-2)) was “increased levels of toxicity”, the safety profile (tumor [1]; higher daily dosage, reduced number of treatment days, reintroduced after a rest period) was “same or a better safety profile” and the toxicity (tumor [1]; higher dose levels 24, 14 days of treatment compared to shorter treatment durations (schedule comparison, Tables 5-1, 5-2)) was “increased levels of toxicity”. The survival curves (tumor [1]; lower 2 dose ranges, 14 days on/7 days off vs 7 days on/7 days off) was “similar”, the “efficacy (tumor volume), schedule comparison at the same daily dosages” value (tumor [1]; lowest dose level) was “advantage in efficacy towards the 14 days on/7 days off schedule” and the efficacy (tumor [1]; schedules with a fewer number of treatment days, at higher dose levels) was “higher efficacy”. The tumor volume reduction (tumor [1]; two lowest dose levels, 14 days on/7 days off vs 7 days on/7 days off) was “similar”, the “median time to onset of hand-foot syndrome” value [2] was “about 79 days” and the “toxicity (death of mice)” value (MX-1; [4]) was “most of the mice died”. For the same compound, the “antitumor efficacy (tumor growth inhibition after 6 weeks of treatment)” value (MX-1; [5]) was “equivalent”, the “time of maximal DE after start of treatment, average” value (tumor [3]; 1.5 mmol/kg/day) was 8.3 days and the “time of maximal DE after start of treatment, range” value (tumor [3]; 1.5 mmol/kg/day) was 6 to 11 days. For the same compound, the “time of maximal drug effect (DE) after start of treatment” value (tumor [3]; 1.5 mmol/kg/day) was 10 days, the “Day on which the drug effect (DE) is maximal, F'(x)≈0” value (tumor [3]; 1.5 mmol/kg/day) was 27 and the “time of maximal DE after start of treatment, average” value (tumor [3]; 2.25 mmol/kg/day) was 10.1 days. For the same compound, the “time of maximal DE after start of treatment, range” value (tumor [3]; 2.25 mmol/kg/day) was 5 to 18 days, the “time of maximal drug effect (DE) after start of treatment” value (tumor [3]; 2.25 mmol/kg/day) was 8 days and the “Day on which the drug effect (DE) is maximal, F'(x)≈0” value (tumor [3]; 2.25 mmol/kg/day) was 25. The “time point of maximum impact of treatment (averages), into therapy” value (tumor [3]; all dose levels analyzed, 14/7 schedule) was 8.3 to 10.1 days, the “toxicity (death of mice)” value (MAXF 401; [4]) was “most of the mice died” and the “antitumor efficacy (tumor growth inhibition after 6 weeks of treatment)” value (MAXF 401; [5]) was “equivalent”.
